Measurements as given in US20260373103A1, “COMPOSITIONS AND METHODS FOR PREVENTING CARDIOMYOPATHY” (OHIO STATE INNOVATION FOUNDATION, priority 2022, published 2026).

Tested on: HeLa-Parkin or HeLa-Parkin/USP30 cells
Experiment: Mitochondrial membrane potential (TMRM signal)
Assay type: cell-based
Conditions: FCCP 10 μM
Method: ΔΨm was measured using a fluorescence microplate reader (BioTek Instruments) in cells preincubated with Tetramethylrhodamine methyl ester (TMRM, Thermo Scientific) following manufacturer's instructions. Cells were washed in PBS before resuspension in Hank's balanced salt solution (HBSS; 156 mM NaCl, 3 mM KCl, 2 mM MgSO4, 1.25 mM KH2PO4, 2 mM CaCl2), 10 mM glucose and 10 mM HEPES; pH adjusted to 7.35 with NaOH) (1.0×10^6 cells/ml) containing 50 nM TMRM. For each individual experiment, average TMRM fluorescence was normalized to control cells.
We initially analyzed mitochondrial function using Tetramethylrhodamine (TMRM), a dye requiring mitochondrial membrane potential to accumulate within the mitochondria.

N#CC(C#N)=NNc1ccc(OC(F)(F)F)cc1 [FCCP, Carbonyl cyanide-p-trifluoromethoxyphenylhydrazone, reference compound]
TMRM staining (mitochondrial membrane potential): significant loss of staining
